The values below are quoted from earlier work in patent US7449194B2, “Antimicrobial body covering articles” (priority 2002, dated 2008).

For this data set the following is noted: in water; 21° C.

Take `[O][Cl+][O-]` [chlorine dioxide]: the partition coefficient is on record as 40.
